Where two headings read alike, the source gives them in different places.

One may read the IC50 as the midpoint of a concentration-inhibition curve.

One data set concerns the target DNA-PKcs (Homo sapiens, UniProt P78527). Conditions: cited from earlier work.
The subject of data set [1] is B7-H1/624mel cells. Put plainly: MTS tumor cell survival assay. It is filed as cell-based. Conditions: for drug resistance of B7-H1/624mel cells compared with Mock/624mel cells (tumor cell survival): varying drug concentrations, 72 hours of culture, MTS assay. Background: Formazan colour is commonly taken as a measure of viable cells.
Description: Cells were pre-treated with DMSO or NU7026 (10 uM) for 1 hour before treatment with doxorubicin (Dox). The relative survival of tumor cells was measured by MTS assay 72 hours after Dox treatment.
Experiments were conducted to test whether B7-H1-expressing tumors would show resistance to drugs that cause DNA damage. Along with cisplatin, which crosslinks DNA, doxorubicin (a topoisomerase II inhibitor that leads to generation of free radicals) and SN38 (a topoisomerase I inhibitor) were tested. Drug sensitivity in B7-H1- and Mock-transfected 624mel melanoma cells was examined in cultures with varying concentrations of the drugs. After 72 hours of culture, tumor cell survival was measured with a MTS assay (Pei et al., Cancer Cell 16:259-266, 2009).
To test whether the association of B7-H1 with DNA-PKcs is a mechanism of drug resistance, the effects of NU7026 on drug sensitivity of B7-H1- or Mock-transfected 624mel cells were tested. […] Using the same dose (10 uM) of NU7026, experiments were conducted to determine whether NU7026 would affect the drug sensitivity of B7-H1/624mel cells.
A further data set has as its system PI3K. The conditions noted are these: read-out: IC50 for inhibition of PI3K; cited from earlier work.
The target of data set [2] is T1, co-localization of B7-H1 and DNA-PKcs at the nucleus (Homo sapiens, UniProt P78527).
T1 construct: B7-H1 positive human breast cancer cells (MBA-MD-231) were used; endogenous in cells; host or cells: MDA-MB-231 human breast cancer cells
T1 sequence (P78527 whole entry): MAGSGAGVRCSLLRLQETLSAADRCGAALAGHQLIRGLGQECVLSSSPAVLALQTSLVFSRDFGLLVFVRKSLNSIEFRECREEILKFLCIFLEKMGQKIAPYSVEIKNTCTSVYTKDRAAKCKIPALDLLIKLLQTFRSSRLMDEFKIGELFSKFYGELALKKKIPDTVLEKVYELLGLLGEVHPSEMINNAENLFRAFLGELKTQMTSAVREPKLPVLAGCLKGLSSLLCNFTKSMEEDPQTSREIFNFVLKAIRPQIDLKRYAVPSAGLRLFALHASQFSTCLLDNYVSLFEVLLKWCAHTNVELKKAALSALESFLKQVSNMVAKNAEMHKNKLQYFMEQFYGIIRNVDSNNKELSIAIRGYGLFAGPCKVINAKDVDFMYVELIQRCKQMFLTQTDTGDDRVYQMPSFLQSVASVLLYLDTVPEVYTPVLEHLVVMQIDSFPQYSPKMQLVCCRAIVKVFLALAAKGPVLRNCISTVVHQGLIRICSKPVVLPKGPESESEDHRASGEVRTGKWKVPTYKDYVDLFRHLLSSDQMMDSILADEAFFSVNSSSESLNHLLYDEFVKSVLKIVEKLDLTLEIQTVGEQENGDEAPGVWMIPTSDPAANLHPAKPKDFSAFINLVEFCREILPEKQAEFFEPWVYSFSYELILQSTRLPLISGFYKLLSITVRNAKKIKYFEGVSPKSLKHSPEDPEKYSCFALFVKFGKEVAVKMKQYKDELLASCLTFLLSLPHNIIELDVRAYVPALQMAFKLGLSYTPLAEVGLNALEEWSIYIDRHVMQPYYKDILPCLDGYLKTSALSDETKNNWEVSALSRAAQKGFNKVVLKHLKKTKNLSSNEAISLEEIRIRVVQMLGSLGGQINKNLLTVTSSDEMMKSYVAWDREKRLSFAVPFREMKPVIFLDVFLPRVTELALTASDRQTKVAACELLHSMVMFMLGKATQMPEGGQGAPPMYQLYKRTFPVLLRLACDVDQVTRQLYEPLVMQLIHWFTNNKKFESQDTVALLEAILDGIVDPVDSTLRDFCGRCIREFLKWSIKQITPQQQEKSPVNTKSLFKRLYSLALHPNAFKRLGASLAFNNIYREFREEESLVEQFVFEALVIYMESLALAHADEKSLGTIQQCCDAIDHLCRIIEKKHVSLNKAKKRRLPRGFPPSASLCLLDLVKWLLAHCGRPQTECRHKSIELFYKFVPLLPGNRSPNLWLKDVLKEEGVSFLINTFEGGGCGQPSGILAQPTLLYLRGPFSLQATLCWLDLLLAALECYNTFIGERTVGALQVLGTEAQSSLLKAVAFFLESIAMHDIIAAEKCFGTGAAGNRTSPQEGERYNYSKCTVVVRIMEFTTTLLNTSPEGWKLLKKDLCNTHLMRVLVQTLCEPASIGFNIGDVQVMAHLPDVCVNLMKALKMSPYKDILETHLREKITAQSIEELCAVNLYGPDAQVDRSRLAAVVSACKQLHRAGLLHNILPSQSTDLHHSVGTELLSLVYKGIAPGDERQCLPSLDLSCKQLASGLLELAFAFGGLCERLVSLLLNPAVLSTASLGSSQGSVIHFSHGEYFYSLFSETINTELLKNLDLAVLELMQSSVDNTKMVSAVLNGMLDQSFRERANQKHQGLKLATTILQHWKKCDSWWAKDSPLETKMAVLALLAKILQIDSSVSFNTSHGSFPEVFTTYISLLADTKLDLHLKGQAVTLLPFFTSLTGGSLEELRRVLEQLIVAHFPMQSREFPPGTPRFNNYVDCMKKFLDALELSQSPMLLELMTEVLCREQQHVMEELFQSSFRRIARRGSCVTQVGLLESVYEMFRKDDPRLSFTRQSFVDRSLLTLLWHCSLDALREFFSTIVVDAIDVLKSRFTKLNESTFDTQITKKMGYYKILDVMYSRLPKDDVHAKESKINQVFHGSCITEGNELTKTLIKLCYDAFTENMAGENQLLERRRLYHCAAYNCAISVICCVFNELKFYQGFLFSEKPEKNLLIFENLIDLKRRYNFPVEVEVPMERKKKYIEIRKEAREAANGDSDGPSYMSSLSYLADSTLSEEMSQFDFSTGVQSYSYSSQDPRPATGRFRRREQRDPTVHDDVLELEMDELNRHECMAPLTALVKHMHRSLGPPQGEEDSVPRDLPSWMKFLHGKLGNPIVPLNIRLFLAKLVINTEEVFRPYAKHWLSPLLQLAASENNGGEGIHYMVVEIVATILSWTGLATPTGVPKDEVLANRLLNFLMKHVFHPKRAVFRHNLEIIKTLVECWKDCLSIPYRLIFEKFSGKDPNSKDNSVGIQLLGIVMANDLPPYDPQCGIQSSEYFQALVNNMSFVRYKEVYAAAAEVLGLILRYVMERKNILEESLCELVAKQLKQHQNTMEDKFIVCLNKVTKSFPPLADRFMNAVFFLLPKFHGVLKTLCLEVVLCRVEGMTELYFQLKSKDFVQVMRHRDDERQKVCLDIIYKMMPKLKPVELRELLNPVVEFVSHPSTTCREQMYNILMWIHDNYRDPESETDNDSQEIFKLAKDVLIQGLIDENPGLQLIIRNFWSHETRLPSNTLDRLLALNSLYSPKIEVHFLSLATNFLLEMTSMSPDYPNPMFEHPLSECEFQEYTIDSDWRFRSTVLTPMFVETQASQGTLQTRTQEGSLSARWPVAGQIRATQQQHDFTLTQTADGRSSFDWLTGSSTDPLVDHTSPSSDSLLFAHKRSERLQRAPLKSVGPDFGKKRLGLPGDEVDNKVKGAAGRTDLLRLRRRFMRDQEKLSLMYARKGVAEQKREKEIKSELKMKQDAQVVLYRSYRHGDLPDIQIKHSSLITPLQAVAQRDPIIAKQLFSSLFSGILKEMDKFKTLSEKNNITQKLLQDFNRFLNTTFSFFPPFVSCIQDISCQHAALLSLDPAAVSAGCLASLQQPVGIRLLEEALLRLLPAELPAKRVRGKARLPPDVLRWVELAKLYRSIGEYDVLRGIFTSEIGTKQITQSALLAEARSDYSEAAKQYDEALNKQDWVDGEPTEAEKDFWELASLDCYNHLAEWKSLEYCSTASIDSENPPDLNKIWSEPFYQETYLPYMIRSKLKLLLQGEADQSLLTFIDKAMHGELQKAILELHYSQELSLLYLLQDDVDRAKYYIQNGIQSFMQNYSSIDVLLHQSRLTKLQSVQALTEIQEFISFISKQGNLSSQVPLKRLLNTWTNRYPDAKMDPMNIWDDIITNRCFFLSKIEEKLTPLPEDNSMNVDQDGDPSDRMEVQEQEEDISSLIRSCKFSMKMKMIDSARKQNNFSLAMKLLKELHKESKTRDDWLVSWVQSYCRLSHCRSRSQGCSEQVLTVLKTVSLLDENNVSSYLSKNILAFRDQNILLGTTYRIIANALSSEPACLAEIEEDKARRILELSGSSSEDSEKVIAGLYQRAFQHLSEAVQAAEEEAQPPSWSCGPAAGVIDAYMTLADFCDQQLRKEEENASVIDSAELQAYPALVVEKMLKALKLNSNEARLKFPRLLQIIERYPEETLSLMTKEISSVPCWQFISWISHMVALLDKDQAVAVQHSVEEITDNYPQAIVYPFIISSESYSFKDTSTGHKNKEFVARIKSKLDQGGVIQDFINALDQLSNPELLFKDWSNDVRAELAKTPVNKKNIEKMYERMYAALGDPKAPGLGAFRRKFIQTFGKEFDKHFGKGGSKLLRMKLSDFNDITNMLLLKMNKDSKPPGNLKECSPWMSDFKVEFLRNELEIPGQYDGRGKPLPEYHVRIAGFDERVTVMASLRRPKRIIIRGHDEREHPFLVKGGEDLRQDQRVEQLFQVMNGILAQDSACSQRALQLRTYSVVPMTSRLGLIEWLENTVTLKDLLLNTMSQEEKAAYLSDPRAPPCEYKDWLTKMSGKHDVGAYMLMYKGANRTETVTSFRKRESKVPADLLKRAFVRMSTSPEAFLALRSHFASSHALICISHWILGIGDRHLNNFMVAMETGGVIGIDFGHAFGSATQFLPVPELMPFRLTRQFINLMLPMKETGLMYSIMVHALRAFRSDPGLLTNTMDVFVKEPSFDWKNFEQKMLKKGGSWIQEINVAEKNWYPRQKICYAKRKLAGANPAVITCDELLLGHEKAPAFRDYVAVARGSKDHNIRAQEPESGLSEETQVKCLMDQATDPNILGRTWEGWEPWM
Put plainly: Immunofluorescence staining of B7-H1 and DNA-PKcs co-localization. It is filed as cell-based. As for the experimental part: FIG. 6 is a series of pictures showing co-localization of B7-H1 and DNA-PKcs. A human breast tumor cell line (MDA-MB-231) was treated with doxorubicin (2 ug/ml) for 2 hours. […] Arrows or arrowheads indicate B7-H1 in plasma or in nuclei, respectively.
(§1) MBA-MD-231 human breast cancer cells, which are positive for B7-H1, were incubated with NU7026, an inhibitor of DNA-PKCs. […] FIG. 15B is a series of pictures from an immunofluorescence assay in which the cells treated with doxorubicin, NU7026, or both, and stained for DNA-PKcs, DNA, or B7-H1. Doxorubicin-induced co-localization (arrow, upper right panel) of B7-H1 and DNA-PKcs at the nucleus was blocked by NU7026 (lower right panel).
B7-H1 undergoes redistribution from the cell surface into the nucleus in human breast tumor cells upon treatment with the cytotoxic drug, doxorubicin (Ghebeh et al., supra).
(§2) B7-H1 positive human breast cancer cells (MBA-MD-231) were used to examine the association of DNA-PKcs and B7-H1.

For a further data set, the system named is Mock/624mel cells. Put plainly: MTS tumor cell survival assay. The format is cell-based. The conditions noted are these: pretreatment with 10 uM NU7026 for 1 hour, MTS 72 hours after Dox.
For data set [3], the system named is ERK1/2 activation in Mock/624mel cells. Put plainly: Intracellular flow cytometry for phospho-ERK1/2. The format is cell-based. Conditions: 10 uM, 24 hours. The protocol: (§3) FIG. 9 is a series of graphs plotting the levels of phosphorylated ERK (top graphs) and total ERK (bottom graphs) in Mock/624mel (left) and B7-H1/624mel (right) tumor cells treated with DMSO or NU7026. Cells were treated with DMSO or NU7026 (10 uM) for 24 hours before intracellular staining for phospho-ERK or total ERK. Numbers are MFI. Inhibition of DNA-PKcs reduced ERK activation, as indicated in the diagram on the right.
(§4) To test the role of DNA-PKcs in activation of the MAPK signal cascade, tumor cells were treated with NU7026, a DNA-PKcs specific inhibitor. […] As a mechanism of action of ERK1/2 in drug resistance, ERK1/2 phosphorylates Bim and enhances degradation of Bim in tumor cells (Gillings, et al., FEBS J 276:6050-6062, 2009; and Luciano et al., Oncogene 22:6785-6793, 2003).
A general note: A flow cytometer gives signals particle by particle.

Data set [4] concerns ERK1/2 activation in B7-H1/624mel cells. Put plainly: Intracellular flow cytometry for phospho-ERK1/2. It is filed as cell-based. The conditions noted are these: 10 uM, 24 hours. As for the experimental part: as §3, §4
Data set [5] addresses T2, association of B7-H1 with DNA-PKcs (Homo sapiens, UniProt P78527).
T2 construct: B7-H1 positive human breast cancer cells (MBA-MD-231) were used; endogenous in cells; host or cells: MDA-MB-231 human breast cancer cells
Put plainly: Immuno-precipitation assay of B7-H1 association with DNA-PKcs. Conditions: B7-H1 positive human breast cancer cells (MBA-MD-231). It is filed as cell-based. The protocol: as §1, §2

Data set [6] relates to B7-H1/624mel cells. Put plainly: Apoptosis by Annexin V binding and TMRE staining. The format is cell-based. Conditions: doxorubicin 1.5 ug/ml, 48 hr. The text has this:
(§5) FIG. 1A is a series of graphs plotting relative survival of Mock/624mel (triangles) and B7-H1/624mel (squares) cells treated with the indicated drugs, as determined by MTS (3-(4,5-dimethylthiazol-2-yl)-5-(3-carboxymethoxyphenyl)-2-(4-sulfophenyl)-2H-tetrazolium) assay. The p-value for area under the curve (dose-response curves) was significant (p<0.01) for treatment with cisplatin (left), doxorubicin (center), and SN38 (right). One of three experiments is shown. Apoptosis of tumor cells treated with doxorubicin (1.5 ug/ml, 48 hr.) was analyzed by tetramethylrhodamine ethyl ester (TMRE) and Annexin V staining (FIG. 1), and by intracellular staining for active caspase-3 (FIG. 1C). Numbers are percentages of gated population.
(§6) Experiments were conducted to test whether B7-H1-expressing tumors would show resistance to drugs that cause DNA damage. […] After 72 hours of culture, tumor cell survival was measured with a MTS assay (Pei et al., Cancer Cell 16:259-266, 2009). […] Since a mechanism of action of most cytotoxic drugs is to induce apoptosis (Sedletska et al., Curr Med Chem Anti-cancer Agents 5:251-265, 2005; and Wang et al., J Biol Chem 279:25535-25543, 2004), apoptosis of B7-H1/624mel and Mock/624mel tumor cells was measured and compared after treatment with doxorubicin. […]

Data set [7] has as its system B7-H1/624mel cells. Put plainly: Intracellular staining for active caspase-3. Conditions: doxorubicin 1.5 ug/ml, 48 hr. The format is cell-based.
Description: as §5, §6

T2 sequence (P78527 whole entry): as above

As to `O=c1cc(N2CCOCC2)oc2c1ccc1ccccc12` [NU7026], the “inhibition of DNA-PKcs activity” value at DNA-PKcs (10 uM) is on record as “completely inhibits”. The IC50 is 230 nM at DNA-PKcs (read-out: IC50 for inhibiting DNA-PKcs activity), 230 nM on DNA-PKcs (read-out: IC50 to inhibit DNA-PKcs) and 13000 nM with PI3K. Moreover, in the data set on B7-H1/624mel cells [1] (pretreatment with 10 uM NU7026 for 1 hour, MTS 72 hours after Dox), the “effect on resistance of B7-H1/624mel cells to doxorubicin” value was “lost their resistance to doxorubicin”. The “effect on doxorubicin-induced co-localization of B7-H1 and DNA-PKcs at the nucleus” value in [2] (MBA-MD-231 cells, 1 μM NU7026) is listed as “blocked”. In addition, the “effect on drug sensitivity of Mock/624mel cells” value in the data set with Mock/624mel cells is “increased the drug sensitivity”. In addition, the “decrease of activation of ERK1/2 (phospho-ERK)” value in data set [3] is listed as “not”; in data set [4], around 2 fold. Also, the “effect on association of B7-H1 with DNA-PKcs” value in data set [5] is given as “abolished”.

Consider `CCc1c2c(nc3ccc(O)cc13)-c1cc3c(c(=O)n1C2)COC(=O)[C@]3(O)CC` [SN38], for which the “drug resistance of B7-H1/624mel cells compared with Mock/624mel cells (tumor cell survival)” value with B7-H1/624mel cells [1] is recorded as “more resistant”.

With `N.N.[Cl][Pt][Cl]` [cisplatin], the “drug resistance of B7-H1/624mel cells compared with Mock/624mel cells (tumor cell survival)” value in the data set on B7-H1/624mel cells [1] is listed as “more resistant”.

Consider `COc1cccc2c1C(=O)c1c(O)c3c(c(O)c1C2=O)C[C@@](O)(C(=O)CO)C[C@@H]3O[C@H]1C[C@H](N)[C@H](O)[C@H](C)O1` [doxorubicin], for which, in the data set on B7-H1/624mel cells [1], the “drug resistance of B7-H1/624mel cells compared with Mock/624mel cells (tumor cell survival)” value is on record as “more resistant”. For the same molecule, the “localization of B7-H1 and DNA-PKcs after treatment with cytotoxic drug” value in data set [2] (MDA-MB-231 cells, doxorubicin 2 ug/ml, 2 hours) was “co-localization of B7-H1 and DNA-PKcs was observed in the nuclei”. The “apoptosis in B7-H1/624mel cells compared to Mock/624mel cells (fold less)” value in the data set with B7-H1/624mel cells [6] is 5 fold. The “level of active caspase-3 in B7-H1/624mel cells compared with Mock/624mel cells” value in the data set on B7-H1/624mel cells [7] was “lower”.

(Values after US12514861B2, “Targeting DNA-PKCS and B7-H1 to treat cancer” (Mayo Foundation for Medical Education and Research, priority 2014, dated 2026).)
